The subject of assay [1] is NCI-H226 cells. The experiment in a line: cells. The class given is cell-based, human. Conditions: Homo sapiens, NCI-H226; lung cancer; MTT, 48 h, 37 °C; RPMI-1640 + 10% FBS; 10,000 cells/well; absorbance 570 nm; n = 3 biologically independent. The procedure:
(§1) An MTT (2-(4,5-dimethylthiazol-2-yl)−2,5-diphenyltetrazolium bromide) assay was used to determine the cytotoxicity of lapcin towards diverse cancer cell lines. Lapcin was dissolved in DMSO to make a 3.2 mg/mL working solution. For each cancer line detailed in Supplementary Table 5, cells at 80-90% confluency were counted and seeded in 96-well, flat bottom microplates and incubated at 37 °C with a 5% CO2 atmosphere. Outer wells were unused to avoid edge effects. After adhering for 24 h, the medium was sterilely aspirated and replaced with 100 µL of fresh medium containing lapcin or a control compound serially diluted at concentrations ranging from 8,000 to 0.00382 ng/mL. After 48 h (37 °C, 5% CO2), the medium was carefully removed and 110 µL of freshly prepared MTT solution (10 µL of 5 mg/mL MTT in PBS (pH 7.4) premixed with 100 µL of complete medium) was added to each well. After 3 h at 37 °C with 5% CO2, 100 µL of solubilization solution (40% DMF, 16% SDS and 2% acetic acid in H2O) was added to each well and precipitated formazan crystals were allowed to dissolve for 4 h. The absorbance of each well was then measured at 570 nm using a Tecan microplate reader.

Assay [2] relates to HCC1806 cells. As to the kind of experiment: cells. The class given is cell-based, human. Conditions: Homo sapiens, HCC1806; breast cancer; MTT, 48 h, 37 °C; RPMI-1640 + 10% FBS; 2,500 cells/well; absorbance 570 nm; n = 3 biologically independent. The procedure:
as §1

For assay [3], the system named is HEK293 cells. As to the kind of experiment: cells. The class given is cell-based, human. Conditions: Homo sapiens, HEK293; normal cell; MTT, 48 h, 37 °C; DMEM + 10% FBS; 5, 000 cells/well; absorbance 570 nm; n = 3 biologically independent. The method, then:
as §1

The test system of assay [4] is A549 cells. The experiment in a line: cells. To be noted: Homo sapiens, A549; lung cancer; MTT, 48 h, 37 °C; DMEM + 10% FBS + NEAA; 2,500 cells/well; absorbance 570 nm; n = 3 biologically independent. The class given is cell-based, human. The method, then: as §1
For assay [5], the system named is NCI-H1299 cells. As to the kind of experiment: cells. Format: cell-based, human. To be noted: Homo sapiens, NCI-H1299; lung cancer; MTT, 48 h, 37 °C; RPMI-1640 + 10% FBS; 2,500 cells/well; absorbance 570 nm; n = 3 biologically independent. The method, then:
as §1

In assay [6] the test system is MCF 7 cells. As to the kind of experiment: cells. Format: cell-based, human. Conditions: Homo sapiens, MCF7; breast cancer; MTT, 48 h, 37 °C; DMEM + 10% FBS; 8,000 cells/well; absorbance 570 nm; n = 3 biologically independent. The procedure: as §1
The subject of assay [7] is HT29 cells. The experiment in a line: cells. The class given is cell-based, human. Conditions: Homo sapiens, HT-29; colon cancer; MTT, 48 h, 37 °C; DMEM + 10% FBS; 2,500 cells/well; absorbance 570 nm; n = 3 biologically independent. The method, then:
as §1

For assay [8], the system named is Hela (Cervical) cells. The experiment in a line: cells. The class given is cell-based, human. Conditions: Homo sapiens, HeLa; cervical cancer; MTT, 48 h, 37 °C; DMEM + 10% FBS; 2,500 cells/well; absorbance 570 nm; n = 3 biologically independent. The method, then: as §1
Assay [9] deals with U2OS (Bone) cells. As to the kind of experiment: cells. The class given is cell-based, human. To be noted: Homo sapiens, U2OS; bone cancer; MTT, 48 h, 37 °C; DMEM + 10% FBS + NEAA; 2,500 cells/well; absorbance 570 nm; n = 3 biologically independent. The procedure: as §1
Assay [10] has as its system HCT116 cells. As to the kind of experiment: cells. The class given is cell-based, human. Conditions: Homo sapiens, HCT-116; colon cancer; MTT, 48 h, 37 °C; DMEM + 10% FBS; 10,000 cells/well; absorbance 570 nm; n = 3 biologically independent. The procedure: as §1
For assay [11], the system named is SW480 cells. As to the kind of experiment: cells. To be noted: Homo sapiens, SW480; colon cancer; MTT, 48 h, 37 °C; DMEM + 10% FBS; 10,000 cells/well; absorbance 570 nm; n = 3 biologically independent. Format: cell-based, human. The procedure: as §1
Assay [12] has as its system bacterial DNA gyrase. To be noted: ref [9],[25]; cited from earlier work.
The subject of assay [13] is Colo205 cells. As to the kind of experiment: cells. Format: cell-based, human. To be noted: Homo sapiens, COLO 205; colon cancer; MTT, 48 h, 37 °C; RPMI-1640 + 10% FBS; 2,500 cells/well; absorbance 570 nm; n = 3 biologically independent. The procedure: as §1

Broadly, the IC50 is the concentration that inhibits the measured activity by half. With `COc1cc([C@@H]2c3cc4c(cc3[C@@H](O[C@@H]3O[C@@H]5CO[C@@H](C)O[C@H]5[C@H](O)[C@H]3O)[C@H]3COC(=O)[C@H]23)OCO4)cc(OC)c1O` [Etoposide], the IC50 in assay [1] came out at 217 nM; in assay [2] it was 3330 nM; in [3], 729 nM; in [4] it was 79.9 nM; in assay [5] it was 716 nM; in assay [6], 333 nM. In addition, the IC50 in assay [7] is 9610 nM; in assay [8] it was 1510 nM; in assay [9] it was 1840 nM; in assay [10], > 54400 nM; in [11], 26900 nM.

With albicidin, the “inhibition of bacterial DNA gyrase” value in assay [12] is recorded as “inhibit the bacterial DNA gyrase”.

For the molecule `CC[C@@]1(O)C(=O)OCc2c1cc1n(c2=O)Cc2cc3ccccc3nc2-1` [Camptothecin], the IC50 in [1] is 28.5 nM; in assay [2], 19.6 nM; in assay [3], 19.2 nM; in assay [4], 17.6 nM; in assay [5], 15 nM; in assay [6] it was > 29200 nM. For the same molecule, the IC50 in assay [7] was found to be 22.3 nM; in assay [8] it was 62.6 nM; in assay [13], 95.7 nM; in [9] it was 172 nM; in [10], 129 nM; in [11], 284 nM.
